From patent publication US11958835B1, “6-(6-bromo-2-oxo-2H-chromen-3-yl)-4-(4-chlorophenyl)-2-alkoxynicotinonitrile as antimicrobial agents” (KING FAISAL UNIVERSITY, priority 2023, dated 2024)

Tests used:
Type in all cases: cell-based
[1] = test system: Bacillus cereus; assay: agar plate disc-diffusion, antibacterial, Bacillus cereus; details: DMSO control zone subtracted; for inhibition zone, Bacillus Cereus, A: A = concentration of comp. = 10,000 μL; for inhibition zone, Bacillus Cereus, B: B = concentration of comp. = 30.000 μL; for inhibition zone, Bacillus Cereus, C: C = concentration of comp. = 50,000 μL
Procedure: (§1) The agar plate disc-diffusion method was applied. Sterilized filter papers (6 mm in diameter) were wetted with 10 μL of a solution of 6-(6-bromo-2-oxo-2H-chromen-3-yl)-4-(4-chlorophenyl)-2-ethoxynicotinonitrile (1) and 6-(6-bromo-2-oxo-2H-chromen-3-yl)-4-(4-chlorophenyl)-2-methoxynicotinonitrile (2) to be tested, containing […], and the discs were allowed to air dry. The discs were then placed onto the surface of agar plates (nutrient agar for bacteria and Sabouraud's dextrose agar for fungi) seeded with the test organism. Each plate contained 15 mL of the agar medium, previously seeded with 0.2 mL of the broth culture of each organism pregrown for 18 hours. The plates were incubated at 37° C. for 48 hours, and 72 hours for fungi. The inhibition zones were measured in millimeters. Discs impregnated with DMSO were used as a control, and its inhibition zone was subtracted from the tested compound actual inhibition zone.
(§2) Their antibacterial screened against gram positive bacteria namely Bacillus cereus and Staphylococcus aureus and gram-negative bacterial strains namely Pseudomonas aeruginosa and Escherichia coli, while their antifungal activity screened against Aspergillus flavus and Chrysosporium keratinophilum as shown in Tables 1 and 2 using ciprofloxacin as a reference.

[2] = test system: Escherichia coli; assay: agar plate disc-diffusion, antibacterial, Escherichia coli; details: DMSO control zone subtracted; for inhibition zone, Escherichia coli, A: A = concentration of comp. = 10,000 μL; for inhibition zone, Escherichia coli, B: B = concentration of comp. = 30.000 μL; for inhibition zone, Escherichia coli, C: C = concentration of comp. = 50,000 μL
Procedure: as §1, §2

[3] = test system: Aspergillus flavus; assay: agar plate disc-diffusion, antifungal, Aspergillus flavus; details: DMSO control zone subtracted; for inhibition zone, Aspergillus flavus, A: A = concentration of comp. = 10,000 μL; for inhibition zone, Aspergillus flavus, B: B = concentration of comp. = 30.000 μL; for inhibition zone, Aspergillus flavus, C: C = concentration of comp. = 50,000 μL
Procedure: as §1, §2

[4] = test system: Chrysosporium keratinophilum; assay: agar plate disc-diffusion, antifungal, Chrysosporium keratinophilum; details: DMSO control zone subtracted; for inhibition zone, Chrysosporiam keratinophilum, A: A = concentration of comp. = 10,000 μL; for inhibition zone, Chrysosporiam keratinophilum, B: B = concentration of comp. = 30.000 μL; for inhibition zone, Chrysosporiam keratinophilum, C: C = concentration of comp. = 50,000 μL
Procedure: as §1, §2

[5] = test system: Staphylococcus aureus; assay: agar plate disc-diffusion, antibacterial, Staphylococcus aureus; details: DMSO control zone subtracted; for inhibition zone, Staphylococcus aureus, A: A = concentration of comp. = 10,000 μL; for inhibition zone, Staphylococcus aureus, B: B = concentration of comp. = 30.000 μL; for inhibition zone, Staphylococcus aureus, C: C = concentration of comp. = 50,000 μL
Procedure: as §1, §2

[6] = test system: Pseudomonas aeruginosa; assay: agar plate disc-diffusion, antibacterial, Pseudomonas aeruginosa; details: DMSO control zone subtracted; for inhibition zone, Pseudomonas aeruginosa, A: A = concentration of comp. = 10,000 μL; for inhibition zone, Pseudomonas aeruginosa, B: B = concentration of comp. = 30.000 μL; for inhibition zone, Pseudomonas aeruginosa, C: C = concentration of comp. = 50,000 μL
Procedure: as §1, §2

SMILES	inhibition zone, Bacillus Cereus, A [1]	inhibition zone, Bacillus Cereus, B [1]	inhibition zone, Bacillus Cereus, C [1]	inhibition zone, Escherichia coli, A [2]	inhibition zone, Escherichia coli, B [2]	inhibition zone, Escherichia coli, C [2]	inhibition zone, Aspergillus flavus, A [3]	inhibition zone, Aspergillus flavus, B [3]	inhibition zone, Aspergillus flavus, C [3]	inhibition zone, Chrysosporiam keratinophilum, A [4]	inhibition zone, Chrysosporiam keratinophilum, B [4]	inhibition zone, Chrysosporiam keratinophilum, C [4]	inhibition zone, Staphylococcus aureus, A [5]	inhibition zone, Staphylococcus aureus, B [5]	inhibition zone, Staphylococcus aureus, C [5]	inhibition zone, Pseudomonas aeruginosa, A [6]	inhibition zone, Pseudomonas aeruginosa, B [6]	inhibition zone, Pseudomonas aeruginosa, C [6]
O=C(O)c1cn(C2CC2)c2cc(N3CCNCC3)c(F)cc2c1=O [Cip., ciprofloxacin, reference compound]	29 millimeters	30 millimeters	42 millimeters	30 millimeters	39 millimeters	60 millimeters	29 millimeters	30 millimeters	42 millimeters	29 millimeters	30 millimeters	53 millimeters	43 millimeters	44 millimeters	53 millimeters	29 millimeters	30 millimeters	53 millimeters
CCOc1nc(-c2cc3cc(Br)ccc3oc2=O)cc(-c2ccc(Cl)cc2)c1C#N [Compound 1, 6-(6-bromo-2-oxo-2H-chromen-3-yl)-4-(4-chlorophenyl)-2-ethoxynicotinonitrile]	15 millimeters	20 millimeters	29 millimeters	27 millimeters	37 millimeters	45 millimeters	20 millimeters	25 millimeters	34 millimeters	24 millimeters	27 millimeters	39 millimeters	18 millimeters	22 millimeters	27 millimeters	21 millimeters	26 millimeters	37 millimeters
COc1nc(-c2cc3cc(Br)ccc3oc2=O)cc(-c2ccc(Cl)cc2)c1C#N [Compound 2, 6-(6-bromo-2-oxo-2H-chromen-3-yl)-4-(4-chlorophenyl)-2-methoxynicotinonitrile]	25 millimeters	27 millimeters	35 millimeters	27 millimeters	34 millimeters	48 millimeters	19 millimeters	23 millimeters	33 millimeters	25 millimeters	29 millimeters	40 millimeters	17 millimeters	23 millimeters	29 millimeters	25 millimeters	31 millimeters	35 millimeters
